Experimental data: patent publication US8664220B2, “Polycyclic compounds as lysophosphatidic acid receptor antagonists” (Amira Pharmaceuticals, Inc., priority 2009, dated 2014)
pIC50: −log10 of the molar value.

Target: T1, human LPA1 (Homo sapiens, UniProt Q92633)
T1 construct: the full-length cDNA for human LPA1 was obtained by PCR of the reverse transcription reaction; expressed in transfected cells
Experiment: LPA1 calcium flux assay
Assay type: cell-based
Conditions: human LPA1 expressing CHO cells, stimulated with 10 nM LPA; read-out: HLPA1 Ca Flux IC50
Method in brief: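 CHO cells stably expressing human LPA1, serum-starved overnight and loaded with Calcium 4 dye in HBSS/20 mM Hepes/0.3% fatty-acid-free HSA, 1 h at 37 °C. Compounds pre-incubated 30 min at room temperature, then 10 nM LPA added; intracellular Ca2+ flux measured and IC50 from titration curves.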

T1 sequence (Q92633 whole entry): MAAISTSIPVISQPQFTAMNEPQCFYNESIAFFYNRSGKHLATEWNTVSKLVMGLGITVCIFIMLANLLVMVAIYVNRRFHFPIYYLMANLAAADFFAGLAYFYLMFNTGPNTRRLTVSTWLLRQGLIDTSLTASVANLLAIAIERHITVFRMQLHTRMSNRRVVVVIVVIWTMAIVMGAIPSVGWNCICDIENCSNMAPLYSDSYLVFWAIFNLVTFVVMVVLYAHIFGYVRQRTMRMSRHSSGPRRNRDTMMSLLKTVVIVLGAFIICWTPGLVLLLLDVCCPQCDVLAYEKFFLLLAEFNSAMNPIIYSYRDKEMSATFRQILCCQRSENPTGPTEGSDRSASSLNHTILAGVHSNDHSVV

SMILES	pIC50
Cc1noc(-c2ccc(-c3ccc(C4(C(=O)NS(C)(=O)=O)CC4)cc3)cc2)c1Nc1cccc(-c2ccccc2)n1 [Compound 3-6, N-(1-{4′-[3-Methyl-4-(6-phenyl-pyridin-2-ylamino)-isoxazol-5-yl]-biphenyl-4-yl}-cyclopropanecarbonyl)-methanesulfonamide]	> 6.52
Cc1noc(-c2ccc(-c3ccc(C4(C(=O)O)CC4)cc3)cc2)c1Nc1cccc(OCc2ccccc2)n1 [Compound 1-125, 1-{4′-[4-(6-Benzyloxy-pyridin-2-ylamino)-3-methyl-isoxazol-5-yl]-biphenyl-4-yl}-cyclopropanecarboxylic acid]	> 6.52
Cc1noc(-c2ccc(-c3ccc(C4(C(=O)O)CC4)cc3)cc2)c1Nc1cccc(N(C)c2ccccc2)c1 [Compound 1-106, 1-(4′-{3-Methyl-4-[3-(methyl-phenyl-amino)-phenylamino]-isoxazol-5-yl}-biphenyl-4-yl)-cyclopropanecarboxylic acid]	> 6.52
Cc1noc(-c2ccc(-c3ccc(C4(C(=O)O)CC4)cc3)cc2)c1Nc1cccc(-c2ccccc2C(F)(F)F)c1 [Compound 1-101, 1-{4′-[3-Methyl-4-(2′-trifluoromethyl-biphenyl-3-ylamino)-isoxazol-5-yl]-biphenyl-4-yl}-cyclopropanecarboxylic acid]	> 6.52
Cc1noc(-c2ccc(-c3ccc(C4(C(=O)O)CC4)cc3)cc2)c1Nc1cccc(S(=O)(=O)c2ccccc2)n1 [Compound 1-128, 1-{4′-[4-(6-Benzenesulfonyl-pyridin-2-ylamino)-3-methyl-isoxazol-5-yl]-biphenyl-4-yl}-cyclopropanecarboxylic acid]	> 6.52
Cc1noc(-c2ccc(-c3ccc(C4(C(=O)O)CC4)cc3)cc2)c1C(O)c1cncc(Cc2ccccc2)c1 (centres unmarked) [Compound 1-59, 1-(4′-{4-[(5-Benzyl-pyridin-3-yl)-hydroxy-methyl]-3-methyl-isoxazol-5-yl}-biphenyl-4-yl)-cyclopropanecarboxylic acid]	> 6.52
Cc1noc(-c2ccc(-c3ccc(C4(C(=O)O)CC4)cc3)cc2)c1Nc1cccc(-c2cccc(C(F)(F)F)c2)n1 [Compound 1-77, 1-(4′-{3-Methyl-4-[6-(3-trifluoromethyl-phenyl)-pyridin-2-ylamino]-isoxazol-5-yl}-biphenyl-4-yl)-cyclopropanecarboxylic acid]	> 6.52
Cc1noc(-c2ccc(-c3ccc(C4(C(=O)O)CC4)cc3)cc2)c1Nc1cccc(Cc2ccccc2)c1 [Compound 1-90, 1-{4′-[4-(3-Benzyl-phenylamino)-3-methyl-isoxazol-5-yl]-biphenyl-4-yl}-cyclopropanecarboxylic acid]	> 6.52
Cc1noc(-c2ccc(-c3ccc(C4(C(=O)O)CC4)cc3)cc2)c1Nc1cccc(N2CCOC2=O)n1 [Compound 1-143, 1-(4′-{3-Methyl-4-[6-(2-oxo-oxazolidin-3-yl)-pyridin-2-ylamino]-isoxazol-5-yl}-biphenyl-4-yl)-cyclopropanecarboxylic acid]	> 6.52
Cc1noc(-c2ccc(-c3ccc(C4(C(=O)O)CC4)cc3)cc2)c1CN1C(=O)O[C@H](c2ccccc2)[C@@H]1C [Compound 1-16, 1-{4′-[3-Methyl-4-((4S,5R)-4-methyl-2-oxo-5-phenyl-oxazolidin-3-ylmethyl)-isoxazol-5-yl]-biphenyl-4-yl}-cyclopropanecarboxylic acid]	> 6.52
Cc1noc(-c2ccc(-c3ccc(C4(C(=O)O)CC4)cc3)cc2)c1CN1C(=O)O[C@@H](c2ccccc2)[C@H]1C [Compound 1-15, 1-{4′-[3-Methyl-4-((4R,5S)-4-methyl-2-oxo-5-phenyl-oxazolidin-3-ylmethyl)-isoxazol-5-yl]-biphenyl-4-yl}-cyclopropanecarboxylic acid]	6.00 to 6.52
Cc1noc(-c2ccc(-c3ccc(C4(C(=O)O)CC4)cc3)cc2)c1C(O)c1cn(Cc2ccc(Cl)cc2)nn1 (centres unmarked) [Compound 1-62, 1-[4′-(4-{[1-(4-Chloro-benzyl)-1H-[1,2,3]triazol-4-yl]-hydroxy-methyl}-3-methyl-isoxazol-5-yl)-biphenyl-4-yl]-cyclopropanecarboxylic acid]	> 6.52
COc1ncccc1-c1cccc(Nc2c(C)noc2-c2ccc(-c3ccc(C4(C(=O)O)CC4)cc3)cc2)c1 [Compound 1-89, 1-(4′-{4-[3-(2-Methoxy-pyridin-3-yl)-phenylamino]-3-methyl-isoxazol-5-yl}-biphenyl-4-yl)-cyclopropanecarboxylic acid]	> 6.52
Cc1noc(-c2ccc(-c3ccc(C4(C(=O)O)CC4)cc3)cc2)c1Nc1cccc(-c2cccc(C(F)(F)F)c2Cl)n1 [Compound 1-157, 1-(4′-{4-[6-(2-Chloro-3-trifluoromethyl-phenyl)-pyridin-2-ylamino]-3-methyl-isoxazol-5-yl}-biphenyl-4-yl)-cyclopropanecarboxylic acid]	> 6.52
Cc1noc(-c2ccc(-c3ccc(C4(C(=O)O)CC4)cc3)cc2)c1Nc1cccc(Oc2ccccc2)n1 [Compound 1-79, 1-{4′-[3-Methyl-4-(6-phenoxy-pyridin-2-ylamino)-isoxazol-5-yl]-biphenyl-4-yl}-cyclopropanecarboxylic acid]	> 6.52
COc1ccccc1-c1cccc(Nc2c(C)noc2-c2ccc(-c3ccc(C4(C(=O)O)CC4)cc3)cc2)n1 [Compound 1-94, 1-(4′-{4-[6-(2-Methoxy-phenyl)-pyridin-2-ylamino]-3-methyl-isoxazol-5-yl}-biphenyl-4-yl)-cyclopropanecarboxylic acid]	> 6.52
Cc1noc(-c2ccc(-c3ccc(C4(C(=O)O)CC4)cc3)cc2)c1Cn1nncc1-c1ccccc1 [Compound 1-20, 1-{4′-[3-Methyl-4-(5-phenyl-[1,2,3]triazol-1-ylmethyl)-isoxazol-5-yl]-biphenyl-4-yl}-cyclopropanecarboxylic acid]	6.00 to 6.52
Cc1noc(-c2ccc(-c3ccc(C4(CC(=O)O)CC4)cc3)cc2)c1NC(C)c1cc(-c2ccccc2)no1 (centres unmarked) [Compound 1-42, [1-(4′-{3-Methyl-4-[1-(3-phenyl-isoxazol-5-yl)-ethylamino]-isoxazol-5-yl}-biphenyl-4-yl)-cyclopropyl]-acetic acid]	> 6.52
Cc1noc(-c2ccc(-c3ccc(CCC(=O)O)cc3)cc2)c1Nc1nnc(-c2ccccc2)o1 [Compound 1-81, 3-{4′-[3-Methyl-4-(5-phenyl[1,3,4]oxadiazol-2-ylamino)-isoxazol-5-yl]-biphenyl-4-yl}-propionic acid]	> 6.52
Cc1noc(-c2ccc(-c3ccc(C4(C(=O)O)CC4)cc3)cc2)c1C(O)c1cn(Cc2ccccc2C(F)(F)F)nn1 (centres unmarked) [Compound 1-56, 1-[4′-(4-{Hydroxy-[1-(2-trifluoromethyl-benzyl)-1H-[1,2,3]triazol-4-yl]-methyl}-3-methyl-isoxazol-5-yl)-biphenyl-4-yl]-cyclopropanecarboxylic acid]	4.30 to 6.00
Cc1noc(-c2ccc(-c3ccc(C4(CC(=O)O)CC4)cc3)cc2)c1C(O)c1nnc(-c2ccccc2)o1 (centres unmarked) [Compound 1-39, [1-(4′-{4-[Hydroxy-(5-phenyl-[1,3,4]oxadiazol-2-yl)-methyl]-3-methyl-isoxazol-5-yl}-biphenyl-4-yl)-cyclopropyl]-acetic acid]	> 6.52
Cc1noc(-c2ccc(-c3ccc(C4(C(=O)O)CC4)cc3)cc2)c1Nc1cccc(OCCc2ccccc2)n1 [Compound 1-141, 1-{4′-[3-Methyl-4-(6-phenethyloxy-pyridin-2-ylamino)-isoxazol-5-yl]-biphenyl-4-yl}-cyclopropanecarboxylic acid]	> 6.52
CCc1noc(-c2ccc(-c3ccc(C4(C(=O)O)CC4)cc3)cc2)c1Nc1nnc(-c2ccccc2)o1 [Compound 2-2, 1-{4′-[3-Ethyl-4-(5-phenyl-[1,3,4]oxadiazol-2-ylamino)-isoxazol-5-yl]-biphenyl-4-yl}-cyclopropanecarboxylic acid]	> 6.52
Cc1noc(-c2ccc(-c3ccc(C4(C(=O)O)CC4)cc3)cc2)c1CN1CCC(c2ccccc2)CC1 [Compound 1-10, 1-{4′-[3-Methyl-4-(4-phenyl-piperidin-1-ylmethyl)-isoxazol-5-yl]-biphenyl-4-yl}-cyclopropanecarboxylic acid]	< 4.30
Cc1noc(-c2ccc(-c3ccc(C4(C(=O)O)CC4)cc3)cc2)c1Nc1cccc(N2CCOCC2)n1 [Compound 1-124, 1-{4′-[3-Methyl-4-(6-morpholin-4-yl-pyridin-2-ylamino)-isoxazol-5-yl]-biphenyl-4-yl}-cyclopropanecarboxylic acid]	> 6.52
Cc1noc(-c2ccc(-c3ccc(C4(C(=O)O)CC4)cc3)cc2)c1NC(=O)c1cccc(-c2ccccc2CN(C)C)c1 [Compound 1-121, 1-(4′-{4-[(2′-Dimethylaminomethyl-biphenyl-3-carbonyl)-amino]-3-methyl-isoxazol-5-yl}-biphenyl-4-yl)-cyclopropanecarboxylic acid]	< 4.30
Cc1noc(-c2ccc(-c3ccc(C4(C(=O)O)CC4)cc3)cc2)c1Nc1cccc(-c2cc(F)cc(Cl)c2)n1 [Compound 1-147, 1-(4′-{4-[6-(3-Chloro-5-fluoro-phenyl)-pyridin-2-ylamino]-3-methyl-isoxazol-5-yl}-biphenyl-4-yl)-cyclopropanecarboxylic acid]	> 6.52
Cc1noc(-c2ccc(-c3ccc(C4(C(=O)O)CC4)cc3)cc2)c1Nc1cncc(-c2cccc(F)c2)c1 [Compound 1-108, 1-(4′-{4-[5-(3-Fluoro-phenyl)-pyridin-3-ylamino]-3-methyl-isoxazol-5-yl}-biphenyl-4-yl)-cyclopropanecarboxylic acid]	> 6.52
Cc1noc(-c2ccc(-c3ccc(C4(C(=O)O)CC4)cc3)cc2)c1C(O)c1nnc(-c2ccccc2)o1 (centres unmarked) [Compound 1-38, 1-(4′-{4-[Hydroxy-(5-phenyl-[1,3,4]oxadiazol-2-yl)-methyl]-3-methyl-isoxazol-5-yl}-biphenyl-4-yl)-cyclopropanecarboxylic acid]	> 6.52
